Test results: patent US20220305121A1, “N-ARYL SULFONAMIDE DERIVATIVES AS VACCINE ADJUVANT” (The Regents of the University of California, priority 2019, published 2022)
“Also recorded” adds a separate entry of the source.

Assays:
Assay type in all cases: cell-based
NF-κB = test: Measurement of NF-κB activation using THP1-Blue NF-κB cells (SEAP reporter, LPS as primary stimulus); conditions: compound 5 μM + LPS, 20 hour incubation; two point normalized: compound 1 + LPS = 200%, LPS = 100%; mean
Experimental: (§1) THP1-Blue™ NF-κB cells were plated in 96-well plates at 10^5 cells/well in 100 μl RPMI supplemented with 10% fetal bovine serum (FBS, Omega Scientific, Inc., Tarzana, Calif.), 100 U/mL penicillin, 100 μg/ml streptomycin (Thermo Fisher Scientific) and Normocin (Invivogen). LPS was prepared in assay medium at a concentration of 20 μg/mL. Tested compounds were dissolved in DMSO at 1 mM as a stock solution and were further diluted in the LPS solution to a final concentration of 10 μM. 100 μL of this solution was then transferred to the plated cells to obtain a final concentration of LPS at 10 μg/mL and compound at 5 μM ([…]). The culture supernatants were harvested after a 20 hour incubation period, SEAP activity in the culture supernatants was determined by a colorimetric assay using QuantiBlue (Invivogen). Plate absorbance was read at 630 nm using a Tecan Infinite M200 plate reader (Männedorf, Switzerland). The SEAP concentration was directly proportional to NF-κB activity, which was 2-point normalized to yield activity of compound 1+LPS as 200% and activity for LPS as 100%.
(§2) Measurement of NF-κB Activation Using THP1-Blue NF-κB Cells. THP1-Blue NF-κB cells were plated in 96-well plates at 10^5 cells/well in 100 μL of RPMI supplemented with 10% fetal bovine serum (FBS, Omega Scientific, Inc., Tarzana, Calif.), 100 U/mL penicillin, 100 μg/mL streptomycin (Thermo Fisher Scientific), and Normocin (Invivogen). LPS was prepared in assay medium at a concentration of 20 μg/mL. Tested compounds were dissolved in DMSO at 1 mM as a stock solution and were further diluted in the LPS solution to a final concentration of 10 μM. 100 μL of this solution was then transferred to the plated cells to obtain a final concentration of LPS at 10 μg/mL and compound at 5 μM ([…]). The culture supernatants were harvested after a 20 hours incubation period. SEAP activity in the culture supernatants was determined by a colorimetric assay using QuantiBlue (Invivogen). Plate absorbance was read at 630 nm using a Tecan Infinite M200 plate reader (Mannedorf, Switzerland). The SEAP concentration was directly proportional to NF-κB activity, which was two-point normalized to yield activity of compound 1+LPS as 200% and activity for LPS as 100%.

ISRE = test: Measurement of ISRE activity in ISRE-bla THP-1 cells (FRET, IFN-α as primary stimulus); conditions: compound 5 μM + IFN-α 100 U/mL, 16 hours, two point normalized: compound 1 + IFN-α = 200%, IFN-α = 100%, mean; for activity at 5 µM: Homo sapiens, THP-1, read-out: ISRE % Activation
Experimental: (§3) ISRE-bla THP-1 cells were plated in 96-well plates at 5×10^4 cells/well in 50 μl RPMI supplemented with 10% dialyzed FBS (Atlanta Biologicals, Inc., GA), 0.1 mM nonessential amino acids, 1 mM sodium pyruvate, 100 U/mL penicillin and 100 μg/ml streptomycin. Type I IFN-α (R&D Systems, #11200-2) solution was prepared in assay medium at a concentration of 200 U/mL Tested compounds were dissolved in DMSO at 1 mM and were further diluted in the IFN-α solution to a final concentration of 10 μM. 50 μL of this solution was then transferred to the plated cells to obtain a final concentration of IFN-α at 100 U/mL and compound at 5 μM ([…]), The cells were incubated for 16 hours, after which 20 μL of 6×LiveBLAzer™ FRET B/G Substrate (CCF4-AM) mixture (prepared according to the manufacturer's instructions) was added to each well, Plates were incubated at room temperature in the dark for 3 hours. Fluorescence was measured on a Tecan Infinite M200 plate reader at an excitation wavelength of 405 nm, and emission wavelengths of 465 nm and 535 nm. Background values (cell free wells at the same fluorescence wavelength) were subtracted from the raw fluorescence intensity values and the emission ratios were calculated as the ratio of background subtracted fluorescence intensities at 465 nm to background subtracted fluorescence intensities at 535 nm. The ISRE activity values for these compounds were 2-point normalized to yield activity of compound 1+IFN-α as 200% and activity for IFN-α as 100%.
Measurement of ISRE Activity in ISRE-bla THP-1 Cells. ISREbla THP-1 cells were plated in 96-well plates at 5×10^4 cells/well in 50 μL of RPMI supplemented with 10% dialyzed FBS (Atlanta Biologicals, Inc., GA), 0.1 mM nonessential amino acids, 1 mM sodium pyruvate, 100 U/mL penicillin, and 100 μg/mL streptomycin. Type I IFN-α (R&D Systems, no. 11200-2) solution was prepared in assay medium at a concentration of 200 U/mL. Tested compounds were dissolved in DMSO at 1 mM and were further diluted in the IFN-α solution to a final concentration of 10 μM. 50 μL of this solution was then transferred to the plated cells to obtain a final concentration of IFN-α at 100 U/mL and compound at 5 μM ([…]). The cells were incubated for 16 hours, after which 20 μL of 6×LiveBLAzer FRET B/G substrate (CCF4-AM) mixture (prepared according to the manufacturer's instructions) was added to each well. Plates were incubated at room temperature in the dark for 3 hours. Fluorescence was measured on a Tecan Infinite M200 plate reader at an excitation wavelength of 405 nm and emission wavelengths of 465 and 535 nm. Background values (cell free wells at the same fluorescence wavelength) were subtracted from the raw fluorescence intensity values and the emission ratios were calculated as the ratio of background subtracted fluorescence intensities at 465 nm to background subtracted fluorescence intensities at 535 nm. The ISRE activity values for these compounds were two-point normalized to yield activity of compound 1+IFN-α as 200% and activity for IFN-α as 100%.

NF-κB and ISRE = NF-κB and ISRE reporter assays (primary screens), statements in words for both assays; conditions: with LPS or IFN-α as primary stimulus; compared to compound 1
Experimental: as §1, §3, §2
Measurement of ISRE Activity in ISRE-bla THP-1 Cells. […]

THP-1 cells = test: Cell viability assay (MTT); conditions: compound 5 μM, 18 hours incubation; normalized to DMSO as 100%; mean
Experimental: THP-1 cells were plated in 96-well plates (10^5 cells/well) in 100 μL RPMI supplemented with 10% FBS, 100 U/mL penicillin and 100 μg/ml streptomycin. Compounds were dissolved in DMSO at 1 mM stock solution and were further diluted to 10 μM in the assay medium. 100 μL of this solution was added to the cells to obtain a final compound concentration of 5 μM ([…]). After 18 hours incubation, a solution of MTT in assay media (0.5 mg/mL) was added to each well and further incubated for 4 to 6 hours, followed by addition of cell lysis buffer (15% w/v SDS and 0.12% v/v 12N HCl aqueous solution), incubated overnight, and then absorbance measured at 570 nm using 650 nm as reference using Tecan Infinite M200 plate reader.
Cell Viability Assay. THP-1 cells were plated in 96-well plates (10^5 cells/well) in 100 μL RPMI supplemented with 10% FBS, 100 U/mL penicillin, and 100 μg/mL streptomycin. Compounds were dissolved in DMSO at 1 mM stock solution and were further diluted to 10 μM in the assay medium. 100 μL of this solution was added to the cells to obtain a final compound concentration of 5 μM ([…]). After 18 h incubation, a solution of MTT in assay media (0.5 mg/mL) was added to each well and further incubated for 4-6 hours, followed by addition of cell lysis buffer (15% w/v SDS and 0.12% v/v 12 N HCl aqueous solution), incubation overnight, and then absorbance was measured at 570 nm using 650 nm as reference using Tecan Infinite M200 plate reader.

Row | Compound | activity at 5 µM (NF-κB) [%] | activity at 5 µM (ISRE) [%] | activity in NF-κB and ISRE assays (in words) (NF-κB and ISRE) | MTT % Viability (THP-1 cells) [%] | NF-κB % Activation (NF-κB) [%] | ISRE % Activation (ISRE) [%]
1 | CCOc1ccc(S(=O)(=O)Nc2ccc(Cl)cc2OC)cc1 [Compound 5, N-(4-chloro-2-methoxyphenyl)-4-ethoxybenzenesulfonamide] | 141 | 109 | complete loss of activity; also recorded: significant loss of activity | 78.3 |  | 
2 | C#CCOCCOCCOCCN(c1cc(OC)c(Cl)cc1OC)S(=O)(=O)c1ccc(OCC)cc1 [Compound 45, N-(4-chloro-2,5-dimethoxyphenyl)-4-ethoxy-N-(2-(2-(2-(prop-2-yn-1-yloxy)ethoxy)ethoxy)ethyl)benzenesulfonamide] | 107 | 130 | too long to retain activity | 73.7 |  | 
3 | CCOC(=O)CN(c1cc(OC)c(Cl)cc1OC)S(=O)(=O)c1ccc(OCC)cc1 [Compound 49, Ethyl N-(4-chloro-2,5-dimethoxyphenyl)-N-((4-ethoxyphenyl)sulfonyl)glycinate] | 202 | 184 | retained dual NF-κB and ISRE activities | 81.4 |  | 
4 | CCOc1ccc(S(=O)(=O)Nc2cc(OC)ccc2OC)cc1 [Compound 6, N-(2,5-dimethoxyphenyl)-4-ethoxybenzenesulfonamide] | 116 | 96 | retained activity | 73.1 |  | 
5 | CCOc1ccc(S(=O)(=O)N(CCCNC(=O)CCCC[C@H]2SC[C@H]3NC(=O)N[C@H]32)c2cc(OC)c(N=[N+]=[N-])cc2OC)cc1 [Compound 64, N-(3-((N-(4-azido-2,5-dimethoxyphenyl)-4-ethoxyphenyl)sulfonamido)propyl)-5-((3aR,4R,6aS)-2-oxohexahydro-1H-thieno[3,4-d]imidazol-4-yl) pentanamide] |  |  | relatively weak activity | 73.8 | 162 | 140
6 | COc1cc(NS(=O)(=O)c2ccc(OC)c(N=[N+]=[N-])c2)c(OC)cc1Cl [Compound 61, 3-Azido-N-(4-chloro-2,5-dimethoxyphenyl)-4-methoxybenzenesulfonamide] |  |  | inactive | 87.2 |  | 
7 | CCOc1ccc(NS(=O)(=O)c2cc(OC)c(Cl)cc2OC)cc1 [Compound 31, 4-Chloro-N-(4-ethoxyphenyl)-2,5-dimethoxybenzenesulfonamide] |  |  | inactivity |  |  | 
8 | COc1ccc(S(=O)(=O)Nc2cc(OC)c(Cl)cc2OC)cc1N [Compound 60, 3-Amino-N-(4-chloro-2,5-dimethoxyphenyl)-4-methoxybenzenesulfonamide] |  |  | resurgence of activity | 77.3 |  | 
9 | CCOc1ccc(S(=O)(=O)Nc2cc(OC)c(N=[N+]=[N-])cc2OC)cc1 [Compound 59, N-(4-azido-2,5-dimethoxyphenyl)-4-ethoxybenzenesulfonamide] |  |  | potent | 76.6 |  | 
10 | COc1cc(NS(=O)(=O)c2ccc(CNC(=O)OC(C)(C)C)cc2)c(OC)cc1Cl [Compound 20, tert-butyl (4-(N-(4-chloro-2,5-dimethoxyphenyl)sulfamoyl)benzyl) carbamate] |  |  |  | 109.2 | 100 | 101
11 | C#CCCN(c1cc(OC)c(Cl)cc1OC)S(=O)(=O)c1ccc(OCC)cc1 [Compound 43, N-(but-3-yn-1-yl)-N-(4-chloro-2,5-dimethoxyphenyl)-4-ethoxybenzenesulfonamide] | 206 | 201 |  | 70.1 |  | 
12 | CCCCCCCCCCCCN(c1cc(OC)c(Cl)cc1OC)S(=O)(=O)c1ccc(OCC)cc1 [Compound 39, N-(4-chloro-2,5-dimethoxyphenyl)-4-ethoxy-N-dodecylbenzenesulfonamide] | 97 | 100 |  | 93.0 |  | 
13 | CCCCOc1ccc(S(=O)(=O)Nc2cc(OC)c(Cl)cc2OC)cc1 [Compound 14, 4-Butoxy-N-(4-chloro-2,5-dimethoxyphenyl)benzenesulfonamide] | 101 | 106 |  | 95.3 |  | 
14 | COc1cc(NS(=O)(=O)c2ccc(C(=O)O)cc2)c(OC)cc1Cl [Compound 28, 4-(N-(4-chloro-2,5-dimethoxyphenyl)sulfamoyl)benzoic acid] |  |  | lost activity | 98.2 |  | 
